Measurements reported in US20220346382A1, “COMPOSITION FOR TREATING AND PREVENTING BACTERIAL GROWTH ON A SUBSTRATE” (PETROLIAM NASIONAL BERHAD (PETRONAS), priority 2019, published 2022).

Assays:
[1] = tested on: bacteria of produced water sample B04S; assay: Viable cell count from suspension cells by hemocytometer (ASTM E 2315-03); format: cell-based
Protocol: (§1) Formulations were prepared by mixing the listed chemical components in the stated concentrations with produced water sample BO4S in a flask (Table 1). These formulations were tested in subsequent examples for biocide activity.
In a typical procedure, a glass hemocytometer and coverslip was cleaned with alcohol prior to use. The coverslip was moisturised with water and affixed to the hemocytometer. The presence of Newton's refraction rings under the coverslip indicated proper adhesion.
The flasks containing the formulations were gently swirled to ensure that the cells were evenly distributed. Before the cells settled to the bottom of the flasks, 0.5 mL of a cell suspension was transferred out to an Eppendorf tube using a 5 mL sterile pipette. Trypan blue (three to five drops) was added to the tube. 100 μL of the Trypan blue-treated cell suspension was pipetted and transferred to the hemocytometer. If a glass hemocytometer was used, both chambers were gently filled underneath the coverslip, allowing the cell suspension to be drawn out by capillary action. If a disposable hemocytometer was used, the cell suspension was pipetted into the well of the counting chamber, allowing capillary action to draw it inside. A microscope was used to focus on the grid lines of the hemocytometer with a 10× objective.

[2] = tested on: bacteria of produced water sample B04S; assay: Cell dry weight of cultured formulations (NACE TM0194-2014); format: cell-based; conditions: Day 7, ambient temperature, static
Text: Bacteria were isolated from produced water samples from an oil field (denoted as samples B04S and B24) in accordance with NACE TM0194-2014.
In sample B04S, Bacillus sp., Bacillus thuringiensis and Marine actinomycetes were identified. In sample B24, Bacillus thuringiensis and Marine actinomycetes were identified. Marine actinomycete was identified to be the main species that support biofilm stability and a growth environment for other species including sulphate-reducing bacteria (SRB).
as §1
The formulations in Example 1 were cultured for seven days at ambient temperatures and static conditions in glass vials. Subsequently the cell dry weight of the formulations was quantified in accordance with NACE TM0194-2014. The cell dry weight for each formulation was reported in and/or converted to g/mL for comparison (FIG. 1).

| Molecule | suppression of bacteria growth ([1]; 100 ppm, Day 7) | lower cell dry weight as compared to formulation THPS [2] | lower cell count as compared to THPS only ([1]; Day 5, sample B04S) | lower cell count as compared to THPS only ([1]; Day 7, sample B04S) |
| --- | --- | --- | --- | --- |
| tetrakis hydroxymethyl phosphonium sulfate [THPS, reference compound] | could not suppress bacteria growth | – | – | – |
| N[C@H](Cc1c[nH]c2ccccc12)C(=O)O [TT, D-Tryptophan] | – | 40% | 77% | 78% |
